Results on 26 molecules are retold here after patent US7160901B2, “Substituted indolinones, preparation thereof and their use as pharmaceutical compositions” (Boehringer Ingelheim Pharma GmbH & Co. KG, priority 2000, dated 2007).

One experiment relates to Leiomyosarcoma tumour cell line SK-UT-1B. Description: Test 1: inhibition of the proliferation of cultivated human tumour cells (14C-thymidine incorporation), SK-UT-1B. It is filed as cell-based. The conditions noted are these: Homo sapiens, Skut1B; in vitro Test 1; SK-UT-1B cells; 48 hours' incubation, then 14C-thymidine for a further 24 hours; IC50 of inhibition of incorporated 14C-thymidine; read-out: Inhibition of SKUT-1B proliferation. The text has this: Inhibition of the Proliferation of Cultivated Human Tumour Cells
Cells of the Leiomyosarcoma tumour cell line SK-UT-1B or non-small-cell lung tumour cell line NCI-H460 (obtained from the American Type Culture Collection (ATCC)) were cultivated in Minimum Essential Medium with non-essential amino acids (Gibco), supplemented with sodium pyruvate (1 mMol), glutamine (2 mMol) and 10% foetal calf serum (Gibco) or RPMI1640 Medium (Gibco) and 10% foetal calf serum (Gibco) and harvested in the logarithmic growth phase. Then the SK-UT-1B cells were placed in Cytostar® multi-well plates (Amersham) at a density of 4000 cells per well or 3000 cells per well for NCI-H460 cells and incubated overnight in an incubator. Various concentrations of the compounds (dissolved in DMSO; final concentration: 0.1%) were added to the cells. After 48 hours' incubation, ^14C-thymidine (Amersham) was added to each well and incubation was continued for a further 24 hours. The quantity of ^14C-thymidine which was incorporated into the tumour cells in the presence of the inhibitor and which represents the number of cells in the S phase was measured in a Wallace 1450 Microbeta Liquid Scintillation Counter. IC50 values for the inhibition of the proliferation (=inhibition of incorporated ^14C-thymidine) were calculated, correcting for the background radiation. All the measurements were done twice.
The following Table contains the results obtained with the in vitro Test 1 (++ denotes <0.01 μM, + denotes 0.01–1.0 μM): […]
Turning to `CN1CCN(Cc2ccc(N/C(=C3\C(=O)Nc4ccc(NS(=O)(=O)c5ccccc5)cc43)c3ccccc3)cc2)CC1` [Example 9, (Z)-3-{1-[4-(4-methylpiperazinomethyl)-phenylamino]-1-phenyl-methylidene}-5-phenylsulphonylamino-2-indolinone], the IC50 lay in the range of 10 to 1000 nM.

Take `CN(C)CCN(c1ccc(N/C(=C2\C(=O)Nc3ccc(NS(=O)(=O)c4ccccc4)cc32)c2ccccc2)cc1)S(=O)(=O)c1ccccc1` [Example 4, (Z)-3-{1-[4-(N-(2-dimethylaminoethyl)-N-phenylsulphonyl-amino)-phenylamino)-1-phenyl-methylidene}-5-phenylsulphonylamino-2-indolinone]: the IC50 is < 10 nM.

`O=C1Nc2ccc(NS(=O)(=O)C3CC3)cc2/C1=C(/Nc1ccc(CN2CCCCC2)cc1)c1ccccc1` [Example 120, (Z)-3-{1-[4-(piperidinomethyl)-phenylamino]-1-phenyl-methylidene}-5-cyclopropylsulphonylamino-2-indolinone]: the IC50 is < 10 nM.

Turning to `O=C1Nc2ccc(NS(=O)(=O)c3cccc([N+](=O)[O-])c3)cc2/C1=C(/Nc1ccc(CN2CCCCC2)cc1)c1ccccc1` [Example 112, (Z)-3-{1-[4-(piperidinomethyl)-phenylamino]-1-phenyl-methylidene}-5-(3-nitrophenylsulphonylamino)-2-indolinone], the IC50 is < 10 nM.

In the case of `CN(c1ccc(N/C(=C2\C(=O)Nc3ccc(NS(=O)(=O)c4ccccc4)cc32)c2ccccc2)cc1)S(C)(=O)=O` [Example 42, (Z)-3-[1-(4-(N-methyl-N-methylsulphonyl-amino)-phenylamino)-1-phenyl-methylidene]-5-phenylsulphonylamino-2-indolinone], the IC50 lay within 10 to 1000 nM.

With `O=C1Nc2ccc(NS(=O)(=O)c3ccccc3)cc2/C1=C(/Nc1ccccc1)c1ccccc1` [Example 22, (Z)-3-(1-phenylamino-1-phenyl-methylidene)-5-phenylsulphonylamino-2-indolinone], the IC50 lay in the range of 10 to 1000 nM.

With `CCS(=O)(=O)Nc1ccc2c(c1)/C(=C(/Nc1ccc(CN(C)C)cc1)c1ccccc1)C(=O)N2` [Example 70, (Z)-3-{1-[4-dimethylaminomethyl-phenylamino]-1-phenyl-methylidene}-5-ethylsulphonylamino-2-indolinone], the IC50 lay within 10 to 1000 nM.

For the molecule `CC(=O)N(CC(=O)N(C)C)c1ccc(N/C(=C2\C(=O)Nc3ccc(NS(=O)(=O)c4ccccc4)cc32)c2ccccc2)cc1` [Example 164, (Z)-3-{1-[4-(N-dimethylaminocarbonylmethyl-N-acetyl-amino)-phenylamino]-1-phenyl-methylidene}-5-phenylsulphonylamino-2-indolinone], the IC50 fell in the range of 10 to 1000 nM.

With `CCS(=O)(=O)Nc1ccc2c(c1)/C(=C(/Nc1ccc(CN(C)Cc3ccccc3)cc1)c1ccccc1)C(=O)N2` [Example 71, (Z)-3-{1-[4-(N-benzyl-N-methyl-aminomethyl)-phenylamino]-1-phenyl-methylidene}-5-ethylsulphonylamino-2-indolinone], the IC50 lay within 10 to 1000 nM.

Turning to `CCCS(=O)(=O)Nc1ccc2c(c1)/C(=C(/Nc1ccc(CN3CCCC3)cc1)c1ccccc1)C(=O)N2` [Example 143, (Z)-3-{1-[4-(pyrrolidin-1-ylmethyl)-phenylamino]-1-phenyl-methylidene}-5-propylsulphonylamino-2-indolinone], the IC50 is 10 to 1000 nM.

On to `O=C1Nc2ccc(NS(=O)(=O)c3ccccc3)cc2/C1=C(/Nc1ccc(C(=O)NCc2ccccc2)cc1)c1ccccc1` [Example 158, (Z)-3-{1-[4-(benzylaminocarbonyl)-phenylamino]-1-phenyl-methylidene}-5-phenylsulphonylamino-2-indolinone], for which the IC50 was in the range of 10 to 1000 nM.

Take `O=C1Nc2ccc(NS(=O)(=O)c3ccccc3)cc2/C1=C(/Nc1ccc(CN2CCCC2)cc1)c1ccccc1` [Example 12, (Z)-3-{1-[4-(pyrrolidin-1-ylmethyl)-phenylamino]-1-phenyl-methylidene}-5-phenylsulphonylamino-2-indolinone]: the IC50 was in the range of 10 to 1000 nM.

Regarding `CC1CCCC(C)N1Cc1ccc(N/C(=C2\C(=O)Nc3ccc(NS(=O)(=O)c4cccc([N+](=O)[O-])c4)cc32)c2ccccc2)cc1` (centres unmarked) [Example 66, (Z)-3-{1-[4-((2,6-dimethylpiperidino)-methyl)-phenylamino]-1-phenyl-methylidene}-5-(3-nitrophenylsulphonylamino)-2-indolinone], the IC50 was < 10 nM.

Regarding `CC(C)S(=O)(=O)Nc1ccc2c(c1)/C(=C(/Nc1ccc(CN3CCCCC3)cc1)c1ccccc1)C(=O)N2` [Example 101, (Z)-3-{1-[4-(piperidinomethyl)-phenylamino]-1-phenyl-methylidene}-5-isopropylsulphonylamino-2-indolinone], the IC50 is < 10 nM.

For the molecule `O=C1Nc2ccc(NS(=O)(=O)c3ccccc3)cc2/C1=C(/Nc1ccc(Cl)cc1)c1ccccc1` [Example 23, (Z)-3-[1-(4-chlorophenylamino)-1-phenyl-methylidene]-5-phenylsulphonylamino-2-indolinone], the IC50 is 10 to 1000 nM.

For the molecule `O=C1Nc2ccc(NS(=O)(=O)c3cccc4ccccc34)cc2/C1=C(/Nc1ccc(CN2CCCCC2)cc1)c1ccccc1` [Example 104, (Z)-3-{1-[4-(piperidinomethyl)-phenylamino]-1-phenyl-methylidene}-5-(naphthalin-1-ylsulphonylamino)-2-indolinone], the IC50 is < 10 nM.

In the case of `CS(=O)(=O)N(CCN)c1ccc(N/C(=C2\C(=O)Nc3ccc(NS(=O)(=O)c4ccccc4)cc32)c2ccccc2)cc1` [Example 2, (Z)-3-{1-[4-(N-(2-aminoethyl)-N-methylsulphonyl-amino)-phenylamino]-1-phenyl-methylidene}-5-phenylsulphonylamino-2-indolinone], the IC50 lay in the range of 10 to 1000 nM.

For the molecule `CCS(=O)(=O)Nc1ccc2c(c1)/C(=C(/Nc1ccc(CCN(C)C)cc1)c1ccccc1)C(=O)N2` [Example 72, (Z)-3-{1-[4-(2-dimethylamino-ethyl)-phenylamino]-1-phenyl-methylidene}-5-ethylsulphonylamino-2-indolinone], the IC50 was 10 to 1000 nM.

With `O=C1Nc2ccc(NS(=O)(=O)C3CC3)cc2/C1=C(/Nc1ccc(CN2CCCC2)cc1)c1ccccc1` [Example 142, (Z)-3-{1-[4-(pyrrolidin-1-ylmethyl)-phenylamino]-1-phenyl-methylidene}-5-cyclopropylsulphonylamino-2-indolinone], the IC50 fell in the range of 10 to 1000 nM.

Turning to `O=C1Nc2ccc(NS(=O)(=O)c3cccnc3)cc2/C1=C(/Nc1ccc(CN2CCCC2)cc1)c1ccccc1` [Example 80, (Z)-3-{1-[4-(pyrrolidin-1-ylmethyl)-phenylamino]-1-phenyl-methylidene}-5-(pyridin-3-ylsulphonylamino)-2-indolinone], the IC50 was < 10 nM.

Turning to `Cc1noc(C)c1S(=O)(=O)Nc1ccc2c(c1)/C(=C(/Nc1ccc(CN3CCCCC3)cc1)c1ccccc1)C(=O)N2` [Example 117, (Z)-3-{1-[4-(piperidinomethyl)-phenylamino]-1-phenyl-methylidene}-5-(3,5-dimethylisoxazol-4-ylsulphonylamino)-2-indolinone], the IC50 was 10 to 1000 nM.

As for `CN(C(=O)CN1CCCCC1)c1ccc(N/C(=C2\C(=O)Nc3ccc(NS(=O)(=O)c4ccccc4)cc32)c2ccccc2)cc1` [Example 56, (Z)-3-[1-(4-(N-methyl-N-piperidinomethylcarbonyl-amino)-phenylamino)-1-phenyl-methylidene]-5-phenylsulphonylamino-2-indolinone], the IC50 is < 10 nM.

Regarding `CS(=O)(=O)Nc1ccc2c(c1)/C(=C(/Nc1ccc(CN3CCCC3)cc1)c1ccccc1)C(=O)N2` [Example 145, (Z)-3-{1-[4-(pyrrolidin-1-ylmethyl)-phenylamino]-1-phenyl-methylidene}-5-methylsulphonylamino-2-indolinone], the IC50 was 10 to 1000 nM.

For the molecule `CN(C)CCN(c1ccc(N/C(=C2\C(=O)Nc3ccc(N(C)S(=O)(=O)c4ccccc4)cc32)c2ccccc2)cc1)S(C)(=O)=O` [Example 207, (Z)-3-{1-[4-(N-(2-dimethylamino-ethyl)-N-methylsulphonyl-amino)-phenylamino)-1-phenyl-methylidene}-5-(N-methyl-N-phenylsulphonyl-amino)-2-indolinone], the IC50 was 10 to 1000 nM.

Consider `CCS(=O)(=O)Nc1ccc2c(c1)/C(=C(/Nc1ccc(CN3CCCC3)cc1)c1ccccc1)C(=O)N2` [Example 144, (Z)-3-{1-[4-(pyrrolidin-1-ylmethyl)-phenylamino]-1-phenyl-methylidene}-5-ethylsulphonylamino-2-indolinone], for which the IC50 lay within 10 to 1000 nM.

Still in this experiment, the particulars now being: in vitro Test 1; SK-UT-1B cells; 48 hours' incubation, then 14C-thymidine for a further 24 hours; IC50 of inhibition of incorporated 14C-thymidine; read-out: Inhibition of SKUT-1B proliferation.
Regarding `CN(C)Cc1ccc(N/C(=C2\C(=O)Nc3ccc(NS(=O)(=O)c4ccccc4)cc32)c2ccccc2)cc1` [Example 36, (Z)-3-[1-(4-dimethylaminomethyl-phenylamino)-1-phenyl-methylidene]-5-phenylsulphonylamino-2-indole], the IC50 was < 10 nM.
